# Reference: publication PMC9774241, “Associating Biological Activity and Predicted Structure of Antimicrobial Peptides from Amphibians and Insects” (Antibiotics, 2022)
# Entries after “also recorded” stand apart in the source; their conditions may differ. Residues, ends and D or L forms follow the SMILES beside them. No end group written: not given here.
# How the values were obtained:
# [1] = tested on: porcine red blood cells; assay: Hemolysis assay (HC50); format: cell-based, pig; conditions: for hemolytic activity (in words): porcine RBCs, highest concentration tested 128 µg/mL
# Description: Peptides were evaluated for toxicity using three independent hemolysis experiments. Whole blood from healthy donor pigs, supplemented with Na Citrate, was purchased from Lampire Biological Laboratories (Pipersville, PA, USA). Red blood cells (RBCs) were washed and isolated by three centrifugation cycles using Roswell Park Memorial Institute medium (RPMI; Thermo-Fisher Scientific) to create a 1% (v/v) RBC solution. […] Following a minimum 30 min incubation at 37 °C, plates were centrifuged and ½ volume from each supernatant was transferred to a new 96-well plate. The absorbance of these wells was measured at 415 nm. To quantify hemolytic activity and determine the AMP concentration that lyses 50% of the RBCs (HC50), absorbance reading from wells containing RBCs treated with 11 μL of a 2% TritonX-100 detergent solution (TX-100) or RPMI (AMP solvent-only) were used to define 100% and 0% hemolysis, respectively. All centrifugation steps were performed at 500× g for five minutes in an Allegra-6R centrifuge (Beckman Coulter, Brea, CA, USA).
# [2] = tested on: Escherichia coli ATCC 25922; format: cell-based; conditions: broth microdilution in MHB, peptide 128 down to 0.5 µg/mL, 20–24 h at 37 °C, no visible growth; range of three independent experiments
# Outline: (§1)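 CLSI broth microdilution in MHB, adapted for cationic peptides, in polypropylene plates; peptides 2-fold from 128 to 0.5 µg/mL, inoculum 2–8 × 10^5 cfu/mL. Incubated 20–24 h at 37 °C; MIC = lowest concentration with no visible growth.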
# [3] = tested on: Salmonella enterica serovar Enteritidis (human clinical isolate); format: cell-based; conditions: broth microdilution in MHB, peptide 128 down to 0.5 µg/mL, 20–24 h at 37 °C, no visible growth; range of three independent experiments
# Outline: as §1
# [4] = tested on: Staphylococcus aureus ATCC 29213; format: cell-based; conditions: broth microdilution in MHB, peptide 128 down to 0.5 µg/mL, 20–24 h at 37 °C, no visible growth; range of three independent experiments
# Outline: as §1
# [5] = tested on: HEK293 cells; assay: alamarBlue cell viability assay (cytotoxicity); format: cell-based, human
# Description: The human embryonic kidney cell line HEK293 and the corresponding growth media and supplements were purchased from the ATCC. The cells were maintained in Eagle’s Minimum Essential Medium (EMEM) supplemented with 10% fetal bovine serum (FBS) and 1% Penicillin-Streptomycin solution and grown in a 5% CO2 incubator at 37 °C. Approximately 1 × 10^4 cells were distributed to each well of a 96-well flat-bottom cell culture plate (Corning #3595, Corning, NY, USA). Cells were incubated overnight to allow them to adhere. Lyophilized 80 µg peptide aliquots were resuspended to 1.28 mg/mL with UltraPure deionized water and serially diluted in polypropylene 96-well microtiter plates from 128-0.5 µg/mL. TX-100 was diluted to 2% in UltraPure deionized water and added as a positive control. Complete growth medium was added to the peptides and TX-100 containing wells. Spent growth medium of wells with adhered cells was replaced with the contents of wells containing serially diluted peptides or TX-100. Cells were incubated for four hours at 37 °C in 5% CO2 incubator. Growth medium containing peptides or TX-100 was replaced with fresh growth medium containing 10% (v/v) alamarBlue (Bio-Rad Laboratories, Hercules, CA, USA) and incubated for 20 h. Fluorescence was measured at excitation of 540 nm and emission of 590 nm in a Cytation 5 plate reader (Agilent BioTek, Winooski, VT, USA) and results recorded and analyzed with Gen5 software (Agilent BioTek, Winooski, VT, USA). The average fluorescence reads of TX-100 and growth media only wells were used to calculate 0% and 100% cell viability, respectively. The percentage of viable cells at each peptide concentration was determined by: cell viability%=1−fluorescence100% viable− fluorescencepeptide/fluorescence100% viable−fluorescence0% viable×100%
Compound,"HC50 (hemolytic 50 concentration) ([1]; 1% porcine RBCs in RPMI, peptide 128 down to 1 µg/mL, minimum 30 min at 37 °C, absorbance 415 nm, three independent experiments)","MIC, E. coli ATCC 25922 [2]","MIC, Salmonella Enteritidis [3]","MIC, S. aureus ATCC 29213 [4]",hemolytic activity (in words) [1],"HEK293 cell viability ([5]; at 128 µg/mL, mean of three independent experiments)",cytotoxicity to HEK293 cells (in words) ([5]; at concentrations lower than 128 µg/mL),"toxicity to HEK293 cells (in words) ([5]; any of the concentrations tested, up to 128 µg/mL)"
CC[C@H](C)[C@H](NC(=O)CNC(=O)[C@H](CCCNC(=N)N)NC(=O)[C@H](CC(C)C)NC(=O)[C@H](CC(C)C)NC(=O)CN)C(=O)N[C@@H](CC(C)C)C(=O)NCC(=O)N[C@@H](C)C(=O)NCC(=O)N[C@@H](CCCCN)C(=O)N[C@@H](CCCCN)C(=O)N[C@H](C(=O)N[C@H](C(=O)N[C@@H](CS)C(=O)NCC(=O)N[C@@H](CC(C)C)C(=O)N[C@@H](CO)C(=O)NCC(=O)N[C@@H](CC(C)C)C(=O)N[C@@H](CS)C(=O)O)C(C)C)[C@@H](C)CC [OdMa2] (H-GLLRGILGAGKKIVCGLSGLC-OH),128 µg/mL,4 µg/mL,8 to 16 µg/mL,4 to 8 µg/mL,–,–,–,–
GILRLVTRRFRFSPTNLNRYTVARLVSGVP [BoAr6],–,32 µg/mL,64 µg/mL,64 to 128 µg/mL,–,–,–,–
GILRSLGWIQMPRSRRRHR [AnFl2],–,16 to 32 µg/mL,128 µg/mL,> 128 µg/mL,–,–,–,–
GILSGLLGAGKKIVC [OdMa4],–,8 to 16 µg/mL,32 µg/mL,> 128 µg/mL,–,–,–,–
"GILSGLLGAGKKIVCGLSGMC [RaOm2, rAMPage-discovered AMP, Rana omeimontis]",–,64 to 128 µg/mL,> 128 µg/mL,> 128 µg/mL,–,–,–,–
GIYTGRLLPVYIPQPRPPHPRLRR [ApCe1],–,4 to 8 µg/mL,16 to 32 µg/mL,> 128 µg/mL,–,–,–,–
GLISGILGAGKKVLC [OdMa9],–,64 to 128 µg/mL,128 µg/mL,> 128 µg/mL,–,–,–,–
"GLLGKVLGVGKKVLC [PeNi4, rAMPage-discovered AMP, Pelophylax nigromaculatus]",–,8 to 16 µg/mL,4 to 8 µg/mL,4 to 8 µg/mL,–,–,–,–
GLVGKLVKGGLKLIGHVANG [RaSi1],–,8 to 16 µg/mL,> 128 µg/mL,64 to 128 µg/mL,–,–,–,–
GSSSRSCRCIRLSRLSSKRT [NaVi4],–,> 128 µg/mL,> 128 µg/mL,> 128 µg/mL,–,–,–,–
GWGLINIKIPPVLHKVSVPLVSKR [ApMe3],–,> 128 µg/mL,> 128 µg/mL,> 128 µg/mL,–,–,–,–
ISIKEALEHSFFHTVPRKWCKKH [PoSn1],–,64 µg/mL,> 128 µg/mL,> 128 µg/mL,–,–,–,–
ITEPVGTKAPTFTSELRGGWLKKR [PaVa3],–,> 128 µg/mL,> 128 µg/mL,> 128 µg/mL,–,–,–,–
KEERGAPKGCWTKSYPPKPCSGKR [PeNi13],–,> 128 µg/mL,> 128 µg/mL,> 128 µg/mL,–,–,–,–
KIKIPWGKVKDFLVGGMKAVGKK [TeBi1],–,1 to 2 µg/mL,4 to 8 µg/mL,4 to 8 µg/mL,not hemolytic at the concentrations tested,40%,low or no cytotoxicity at lower concentrations,–
KLFLTLWKLKR [NaVi3],–,8 to 16 µg/mL,64 µg/mL,128 µg/mL,–,–,–,–
KYHHIKLRHGRHRRTIH [PaVa2],–,> 128 µg/mL,> 128 µg/mL,> 128 µg/mL,–,–,–,–
RKIIAVSVHKLCRVKR [BoUs1],–,64 to 128 µg/mL,64 µg/mL,> 128 µg/mL,–,–,–,–
RPRPQQVPPRPPHPRLRR [PaVa1],–,–,–,–,not toxic,–,–,–
RPRWSHRSRR [PeNi18],–,> 128 µg/mL,> 128 µg/mL,> 128 µg/mL,–,–,–,–
RRAIFASIRGYLGLRKR [MyGu1],–,4 µg/mL,8 to 16 µg/mL,128 µg/mL,–,–,–,–
SWLSKSVKKLVNKKNYTRLEKLAKKKLFNE [TeRu4],–,1 µg/mL,2 to 4 µg/mL,–,not hemolytic at the concentrations tested; also recorded: not toxic,–,–,not toxic
"TALKSLSILKKLAKLNM [PoSn2, rAMPage-discovered AMP, Polistes snelleni]",–,64 to 128 µg/mL,> 128 µg/mL,> 128 µg/mL,–,–,–,–
VAAFAIIGCLCCRRPRR [PoRo1],–,> 128 µg/mL,> 128 µg/mL,> 128 µg/mL,–,–,–,–
VKCRVRR [ApMe1],–,> 128 µg/mL,> 128 µg/mL,> 128 µg/mL,–,–,–,–
VPFGLKPR [TeRu1],–,> 128 µg/mL,> 128 µg/mL,> 128 µg/mL,–,–,–,–
WALRWKTR [PaVi1],–,> 128 µg/mL,> 128 µg/mL,> 128 µg/mL,–,–,–,–
